Laboratory results reported in US20230391729A1, “SUCCINATE SALTS OF N-(3-(4-(3-(DIISOBUTYLAMINO)PROPYL)PIPERAZIN-1-YL)PROPYL)-1H-BENZO[D]IMIDAZOL-2-AMINE, PREPARATION THEREOF AND USE OF THE SAME” (ALZPROTECT, priority 2020, published 2023).

Legend:
[1] = tested on: dopaminergic (TH positive) neurons; assay: Survival and neurite network of TH(+) mesencephalic neurons after MPP+ injury; format: cell-based, rat; details: MPP+ 4 μM 48 h; 50 nM dose
Description: Rat dopaminergic neurons were cultured as described by Visanji et al. in FASEB J. 2008, 22(7): 2488-2497 and Callizot et al., in Plos One 2019: https://doi.org/10.1371/journal.pone.0215277. Briefly, pregnant female rat (Wistar) of 15 days of gestation were killed using a deep anesthesia with CO2 chamber and a cervical dislocation. The midbrains obtained from 15-day-old rat embryos (Janvier, France) were dissected under a microscope. The embryonic midbrains were removed and placed in ice-cold medium of Leibovitz (L15) containing 2% of Penicillin-Streptomycin (PS) and 1% of BSA. The ventral portion of the mesencephalic flexure, a region of the developing brain rich in dopaminergic neurons, were used for the cell preparations. The midbrains were dissociated by trypsinization for 20 min at 37° C. (solution at a final concentration of 0.05% trypsin and 0.02% EDTA). The reaction was stopped by the addition of DMEM containing DNAase I grade II (0.5 mg/mL) and 10% of FCS. […] Viable cells were counted in a Neubauer cytometer using the trypan blue exclusion test. […]
(§1) The following read-outs were investigated: • neuron survival: total number of TH neurons (TH staining), • neurite network: total length of neurite network of TH positive neurons (in μm) • α-syn aggregation (area of overlapping between TH and α-syn staining in μm^2) […]

[2] = Gravimetric vapour sorption (GVS); format: physicochemical
Description: Approximately 10-20 mg of sample was placed into a mesh vapour sorption balance pan and loaded into an IGASorp Moisture Sorption Analyser balance by Hiden Analytical. The sample was subjected to a ramping profile from 40-90% relative humidity (RH) at 10% increments, maintaining the sample at each step until a stable weight had been achieved (98% step completion, minimum step length 30 minutes, maximum step length 60 minutes) at 25° C. After completion of the sorption cycle, the sample was dried using the same procedure to 0% RH, and finally taken back to the starting point of 40% RH. Two cycles were performed. The weight change during the sorption/desorption cycles were plotted, allowing for the hygroscopic nature of the sample to be determined.

[3] = tested on: dopaminergic (TH positive) neurons; assay: Survival and neurite network of TH(+) mesencephalic neurons after rotenone injury; format: cell-based, rat; details: rotenone 10 nM 24 h
Description: Rat dopaminergic neurons were cultured as described by Visanji et al. in FASEB J. 2008, 22(7): 2488-2497 and Callizot et al., in Plos One 2019: https://doi.org/10.1371/journal.pone.0215277. Briefly, pregnant female rat (Wistar) of 15 days of gestation were killed using a deep anesthesia with CO2 chamber and a cervical dislocation. The midbrains obtained from 15-day-old rat embryos (Janvier, France) were dissected under a microscope. The embryonic midbrains were removed and placed in ice-cold medium of Leibovitz (L15) containing 2% of Penicillin-Streptomycin (PS) and 1% of BSA. The ventral portion of the mesencephalic flexure, a region of the developing brain rich in dopaminergic neurons, were used for the cell preparations. The midbrains were dissociated by trypsinization for 20 min at 37° C. (solution at a final concentration of 0.05% trypsin and 0.02% EDTA). The reaction was stopped by the addition of DMEM containing DNAase I grade II (0.5 mg/mL) and 10% of FCS. Cells were then mechanically dissociated by 3 passages through a 10 ml pipette. Cells were then centrifuged at 180×g for 10 min at +4° C. on a layer of BSA (3.5%) in L15 medium. The supernatant was discarded and the cell pellets were re-suspended in a defined culture medium consisting of Neurobasal supplemented with B27 (2%), L-glutamine (2 mM) and 2% of PS solution and 10 ng/mL of BDNF and 1 ng/mL of Glial-Derived Neurotrophic Factor (GDNF). Viable cells were counted in a Neubauer cytometer using the trypan blue exclusion test. The cells were seeded at a density of 40,000 cells/well in 96 well-plates (pre-coated with poly-L-lysine) and maintained in a humidified incubator at 37° C. in 5% CO2/95% air atmosphere. Half of the medium was changed every 2 days with fresh medium. […]
as §1

For “N-(3-(4-(3-(diisobutylamino)propyl)piperazin-1-yl)propyl)-1H-benzo[d]imidazol-2-amine sesqui-succinate salt [sesqui-succinate salt Form 1]”, the “neurite network of TH positive neurons” value [1] was “significantly improved”, the “neuron survival: total number of TH neurons” value (“neuron survival: total number” for short) [1] was “neuroprotective” and the “Post-GVS XRPD crystalline form” value ([2]; after exposure to GVS humidity conditions) was “remain as the same crystalline form”. The GVS weight uptake ([2]; at 70% RH, 25° C.) was “ca. +0.1 wt. %”, the “GVS water uptake in equivalents” value ([2]; up to 90% RH) was “approximately 7.1 equiv. water” and the GVS weight increase ([2]; up to 90% RH, 25° C.) was “ca. +18.9 wt. %”. For the same substance, the hygroscopicity ([2]; up to 90% relative humidity) was “not hygroscopic”, the “neuron survival: total number” value ([3]; administered directly with rotenone, all concentrations) was “significantly increased neuronal survival” and the “neurite network of TH positive neurons” value ([3]; pre and co-treatment, 10 to 100 nM) was “significantly improved”. For the same substance, the “neuron survival: total number” value ([3]; pre-incubated, 10 and 50 nM) was “significantly neuroprotective”.
